# Laboratory results as given in patent publication US20180352816A1, “COMPOSITION FOR CROP CARE AND PROTECTION” (ALPHA BIOPESTICIDES LIMITED, priority 2015, published 2018).
# Read-outs that look alike come from different tables or passages of the source.
# Assays:
# P. infestans = test: microbe, parasite or virus in culture; format: cell-based
# E. amylovora = test: Broth microdilution MIC and FIC index (CLSI protocol)
# B. cinerea = test: as above; format: cell-based
# Z. tritici = test: as above; format: cell-based
# P. syringae = test: as above; format: cell-based; details: triplicate
# Text: FIC index>1: no synergistic effect.
# [1] = E. amylovora, broth microdilution, triplicate
molecule,measurement,setting,value
"[Cl-].[Cu+2].[Cu+2].[OH-].[OH-].[OH-] [Copper oxychloride, copper oxychloride]",MIC,"P. infestans; P. infestans, broth microdilution, triplicate",3.6 mg/mL
"[Cu+2].[OH-].[OH-] [Copper hydroxide, copper hydroxide]",MIC,E. amylovora; [1],0.375 mg/mL
copper salicylate,MIC,"B. cinerea; B. cinerea, broth microdilution, triplicate",0.06 mg/mL
same,MIC,"Z. tritici; Z. tritici, broth microdilution, triplicate",0.235 mg/mL
copper anthranilate,MIC,P. syringae,0.59 mg/mL
same,MIC,E. amylovora; [1],0.29 mg/mL
CCCCCCCC/C=C\CCCCCCCC(=O)[O-].[K+] [Potassium oleate],MIC,B. cinerea; Botrytis cinerea,3.77 mg/mL
same,MIC,Z. tritici; Zymoseptoria tritici,15.1 mg/mL
same,MIC,"P. syringae; Pseudomonas syringae, read-out: MIC",0.03 mg/mL
same,MIC,P. infestans; Phytophthora infestans,0.22 mg/mL
same,MIC,E. amylovora; Erwinia amylovora,0.0073 mg/mL
